What all share (assay): microbe, parasite or virus in culture
Holding throughout (format): cell-based

For test [1], the system named is HCV 1a RLuc cells (dicistronic genotype 1a H77 replicon, RLuc reporter). The conditions noted are these: genotype 1a H77 replicon, RLuc reporter, read-out: 1a. The gist of the method:
(§1)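 Replicons used: genotype 1b Con1, 1a H77, 2a JFH-1, and a 2a JFH-1 chimera with J6-strain NS5A (M31 present), all dicistronic.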

Test [2] concerns HCV 1b RLuc cells (dicistronic genotype 1b Con1 replicon, RLuc reporter). The gist of the method:
as §1

For test [3], the system named is HCV 2a JFH-1 Rluc cells (dicistronic genotype 2a JFH-1 replicon, RLuc reporter). The conditions noted are these: genotype 2a JFH-1 replicon, RLuc reporter, read-out: 2a JFH. The gist of the method:
as §1
(In antiviral work, replicon cells carry a viral genome segment that copies itself.)

For test [4], the system named is HCV 3a RLuc cells (NS5A chimeric genotype 1b Con1 replicon with consensus genotype 3a NS5A gene). The gist of the method: (§2)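 Replicon cells stably carrying the listed RLuc-encoding dicistronic replicons were seeded and treated with DMSO serial dilutions of compound (10 mM stocks) diluted into culture medium. After 72 h, cells were lysed and Renilla luciferase activity measured. EC50 was derived by non-linear regression.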

Test [5] concerns HCV 4a Rluc cells (NS5A chimeric genotype 1b Con1 replicon with genotype 4a NS5A gene). The conditions noted are these: read-out: 4a. The gist of the method:
as §2

Setting [6] is: Hepatitis C virus, read-out: 1b (nM).
Where [7] appears, read: Hepatitis C virus, read-out: 3a, genotype 3a NS5A chimeric 1b Con1 replicon.

Like-named read-outs stand apart in the source and are kept apart here. A value given as a limit tells only on which side of the number the result lay.

`COC(=O)N[C@H](C(=O)N1CCC[C@H]1c1nc2ccc3cc(-c4ccc5cc(-c6cnc([C@@H]7CCCN7C(=O)[C@@H](NC(=O)OC)C7CCOCC7)[nH]6)ccc5c4)ccc3c2[nH]1)C(C)C` [Example 195]: the EC50 in test [1] (Hepatitis C virus) was 0.001 to 0.999 nM; in test [2] (setting [6]) it was 0.023 nM; in test [3] (Hepatitis C virus) it was 0.001 to 0.999 nM; in test [4] (setting [7]) it was 1 to 4.99 nM; in test [5] (Hepatitis C virus) it was 0.001 to 0.99 nM.
Consider `COC(=O)N[C@H](C(=O)N1CCC[C@H]1c1ncc(-c2ccc3cc(-c4ccc(-c5cnc([C@@H]6CCCN6C(=O)C6(NC(=O)OC)CCc7ccccc76)[nH]5)cc4)ccc3c2)[nH]1)C(C)C` (stereo partly drawn) [Example 196], for which the EC50 is 1 to 44 nM in test [1] (Hepatitis C virus); 0.036 nM in test [2] (setting [6]); 1 to 44 nM in test [3] (Hepatitis C virus); greater than 5 nM in test [4] (setting [7]); 0.001 to 0.99 nM in test [5] (Hepatitis C virus).
Turning to `COC(=O)N[C@H](C(=O)N1CCC[C@H]1c1ncc(-c2ccc(-c3ccc(-c4ccc5cc(-c6cnc([C@@H]7CCCN7C(=O)[C@H](NC(=O)OC)c7ccccc7)[nH]6)ccc5c4)cc3)cc2)[nH]1)C(C)C` [Example 197], the EC50 in test [1] (Hepatitis C virus) was 1 to 44 nM; in test [2] (setting [6]), 0.01 nM; in test [3] (Hepatitis C virus) it was 1 to 44 nM; in test [4] (setting [7]), 0.001 to 0.99 nM; in test [5] (Hepatitis C virus), 0.001 to 0.99 nM.
As for `COC(=O)NC(C(=O)N1CCC[C@H]1c1ncc(-c2ccc3c(c2)C(F)(F)c2cc(-c4ccc(-c5cnc([C@@H]6CCCN6C(=O)[C@H](NC(=O)OC)c6ccccc6)[nH]5)cc4)ccc2-3)[nH]1)C1CCOCC1` (stereo partly drawn) [Example 199], the EC50 in test [1] (Hepatitis C virus) was 1 to 44 nM; in test [2] (setting [6]), 0.01 nM; in test [3] (Hepatitis C virus) it was 1 to 44 nM; in test [4] (setting [7]), 1 to 4.99 nM; in test [5] (Hepatitis C virus) it was 0.001 to 0.99 nM.
On to `CCN(CC)C(C(=O)N1CCC[C@H]1c1ncc(-c2ccc(-c3ccc4c(c3)C(F)(F)c3cc(-c5cnc([C@@H]6CCCN6C(=O)C(NC(=O)OC)C(C)C)[nH]5)ccc3-4)cc2)[nH]1)c1ccccc1` (stereo partly drawn) [Example 200], for which the EC50 in test [1] (Hepatitis C virus) was 1 to 44 nM; in test [2] (setting [6]), 0.009 nM; in test [3] (Hepatitis C virus) it was 1 to 44 nM; in test [4] (setting [7]) it was 1 to 4.99 nM; in test [5] (Hepatitis C virus), 0.001 to 0.99 nM.
`COC(=O)N[C@H](C(=O)N1CCC[C@H]1c1ncc(-c2ccc(-c3ccc4c(c3)C(F)(F)c3cc(-c5cnc([C@@H]6CCCN6C(=O)[C@@H](NC(=O)OC)C(C)(C)C)[nH]5)ccc3-4)cc2)[nH]1)C1CCOCC1` [Example 201]: the EC50 in test [1] (Hepatitis C virus) is 0.001 to 0.999 nM; in test [2] (setting [6]), 0.018 nM; in test [3] (Hepatitis C virus), 1 to 44 nM; in test [4] (setting [7]) it was greater than 5 nM; in test [5] (Hepatitis C virus), 0.001 to 0.99 nM.
In the same order, the values of `COC(=O)NC(C(=O)N1CCC[C@H]1c1ncc(-c2ccc3c(c2)C(F)(F)c2cc(-c4ccc(-c5cnc([C@@H]6CCCN6C(=O)[C@@H](NC(=O)OC)C6CCOCC6)[nH]5)cc4)ccc2-3)[nH]1)C1CCOCC1` (stereo partly drawn) [Example 202] are 0.001 to 0.999 nM, 0.017 nM, 1 to 44 nM, greater than 5 nM and 0.001 to 0.99 nM.
In the same order, the values of `CCN(C(=O)OC)[C@@H](C(=O)N1CCC[C@H]1c1ncc(-c2ccc(-c3ccc4cc(-c5cnc([C@@H]6CCCN6C(=O)[C@@H](NC(=O)OC)C(C)C)[nH]5)ccc4c3)cc2)[nH]1)c1ccccc1` [Example 203] are greater than 44 nM, 0.124 nM, 1 to 44 nM, greater than 5 nM and 0.001 to 0.99 nM.
On to `COC(=O)NC(C(=O)N1CCC[C@H]1c1ncc(-c2ccc3cc(-c4ccc(-c5cnc([C@@H]6C[C@@H](C)CN6C(=O)[C@@H](NC(=O)OC)C6CCOCC6)[nH]5)cc4)ccc3c2)[nH]1)c1ccccc1` (stereo partly drawn) [Example 204], for which the EC50 in test [1] (Hepatitis C virus) was 0.001 to 0.999 nM; in test [2] (setting [6]), 0.03 nM; in test [3] (Hepatitis C virus), 0.001 to 0.999 nM; in test [4] (setting [7]), 0.001 to 0.99 nM; in test [5] (Hepatitis C virus) it was 0.001 to 0.99 nM.
For `COC(=O)NC(C(=O)N1CCC[C@H]1c1ncc(-c2ccc3cc(-c4ccc(-c5cnc([C@@H]6CC(C)(Br)CN6C(=O)[C@@H](NC(=O)OC)C6CCOCC6)[nH]5)cc4)ccc3c2)[nH]1)c1ccccc1` (stereo partly drawn) [Example 205], the EC50 in test [1] (Hepatitis C virus) was 0.001 to 0.999 nM; in test [2] (setting [6]), 0.016 nM; in test [3] (Hepatitis C virus) it was 0.001 to 0.999 nM; in test [4] (setting [7]), 1 to 4.99 nM; in test [5] (Hepatitis C virus), 0.001 to 0.99 nM.
With `COC(=O)NC(C(=O)N1CC2(CC2)C[C@H]1c1ncc(-c2ccc3c(c2)C(F)(F)c2cc(-c4ccc(-c5cnc([C@@H]6CCCN6C(=O)[C@@H](NC(=O)OC)C6CCOCC6)[nH]5)cc4)ccc2-3)[nH]1)C(C)C` (stereo partly drawn) [Example 207], the EC50 in test [1] (Hepatitis C virus) is 0.001 to 0.999 nM; in test [2] (setting [6]), 0.017 nM; in test [3] (Hepatitis C virus), 1 to 44 nM; in test [4] (setting [7]) it was greater than 5 nM; in test [5] (Hepatitis C virus) it was 0.001 to 0.99 nM.
On to `COC(=O)N[C@H](C(=O)N1CCC[C@H]1c1nc2ccc3cc(C#Cc4ccc(-c5cnc([C@@H]6CCCN6C(=O)[C@H](NC(=O)OC)c6ccccc6)[nH]5)cc4)ccc3c2[nH]1)C1CCOCC1` [Example 208], for which the EC50 in test [1] (Hepatitis C virus) was 0.001 to 0.999 nM; in test [2] (setting [6]) it was 0.009 nM; in test [3] (Hepatitis C virus), 0.001 to 0.999 nM; in test [4] (setting [7]), 0.001 to 0.99 nM; in test [5] (Hepatitis C virus), 0.001 to 0.99 nM.
Consider `COC(=O)NC(C(=O)N1C[C@H](C)C[C@H]1c1ncc(-c2ccc(-c3ccc4cc(-c5cnc([C@@H]6CCCN6C(=O)[C@@H](NC(=O)OC)C(C)C)[nH]5)ccc4c3)cc2)[nH]1)c1cccnc1` (stereo partly drawn) [Example 215], for which the EC50 in test [1] (Hepatitis C virus) is 0.001 to 0.999 nM; in test [2] (setting [6]), 0.023 nM; in test [3] (Hepatitis C virus), 0.001 to 0.999 nM; in test [4] (setting [7]), 0.001 to 0.99 nM; in test [5] (Hepatitis C virus) it was 0.001 to 0.99 nM.
As to `COC(=O)N[C@H](C(=O)N1CCC[C@H]1c1nc2ccc3cc(-c4ccc5cc(-c6cnc([C@@H]7COCCN7C(=O)[C@H](NC(=O)OC)c7ccccc7)[nH]6)ccc5c4)ccc3c2[nH]1)C(C)C` [Example 216], the EC50 in test [1] (Hepatitis C virus) is 0.001 to 0.999 nM; in test [2] (setting [6]), 0.006 nM; in test [3] (Hepatitis C virus), 0.001 to 0.999 nM; in test [4] (setting [7]), 0.001 to 0.99 nM; in test [5] (Hepatitis C virus), 0.001 to 0.99 nM.
In the case of `COC(=O)N[C@H](C(=O)N1CCC[C@H]1c1nc2ccc(-c3ccc4c(c3)C(F)(F)c3cc(-c5c[nH]c([C@@H]6CCCN6C(=O)[C@H](NC(=O)OC)c6ccccc6)n5)ccc3-4)cc2[nH]1)C(C)C` [Example 217], the EC50 is 0.001 to 0.999 nM in test [1] (Hepatitis C virus); 0.009 nM in test [2] (setting [6]); 0.001 to 0.999 nM in test [3] (Hepatitis C virus); 0.001 to 0.99 nM in test [4] (setting [7]); 0.001 to 0.99 nM in test [5] (Hepatitis C virus).
With `COC(=O)N[C@H](C(=O)N1CCC[C@H]1c1nc2ccc(-c3ccc4c(c3)C(F)(F)c3cc(-c5c[nH]c([C@@H]6CCCN6C(=O)[C@H](NC(=O)OC)c6ccccc6)n5)ccc3-4)cc2[nH]1)C1CCOCC1` [Example 218], the EC50 in test [1] (Hepatitis C virus) was 0.001 to 0.999 nM; in test [2] (setting [6]), 0.01 nM; in test [3] (Hepatitis C virus), 0.001 to 0.999 nM; in test [4] (setting [7]), 0.001 to 0.99 nM; in test [5] (Hepatitis C virus) it was 0.001 to 0.99 nM.
Regarding `COC(=O)N[C@H](C(=O)N1CCC[C@H]1c1nc2ccc(-c3ccc4c(c3)C(F)(F)c3cc(-c5c[nH]c([C@@H]6CCCN6C(=O)[C@@H](NC(=O)OC)C6CCOCC6)n5)ccc3-4)cc2[nH]1)C(C)C` [Example 219], the EC50 is 0.001 to 0.999 nM in test [1] (Hepatitis C virus); 0.008 nM in test [2] (setting [6]); 0.001 to 0.999 nM in test [3] (Hepatitis C virus); 1 to 4.99 nM in test [4] (setting [7]); 0.001 to 0.99 nM in test [5] (Hepatitis C virus).
`COC(=O)N[C@H](C(=O)N1CCC[C@H]1c1nc(-c2ccc3c(c2)C(F)(F)c2cc(-c4ccc5nc([C@@H]6CCCN6C(=O)[C@@H](NC(=O)OC)C6CCOCC6)[nH]c5c4)ccc2-3)c[nH]1)C(C)C` [Example 220]: the EC50 in test [1] (Hepatitis C virus) was 0.001 to 0.999 nM; in test [2] (setting [6]), 0.011 nM; in test [3] (Hepatitis C virus) it was 0.001 to 0.999 nM; in test [4] (setting [7]), 1 to 4.99 nM; in test [5] (Hepatitis C virus), 0.001 to 0.99 nM.
As for `COC(=O)N[C@H](C(=O)N1CCC[C@H]1c1ncc(-c2ccc3cc(-c4ccc(-c5cnc([C@@H]6CCCN6C(=O)[C@H](NC(=O)c6ccccn6)c6ccccc6)[nH]5)cc4)ccc3c2)[nH]1)C(C)C` [Example 221], the EC50 in test [1] (Hepatitis C virus) is 0.001 to 0.999 nM; in test [2] (setting [6]), 0.017 nM; in test [3] (Hepatitis C virus), 0.001 to 0.999 nM; in test [4] (setting [7]), 0.001 to 0.99 nM; in test [5] (Hepatitis C virus), 0.001 to 0.99 nM.
As for `COC(=O)N[C@H](C(=O)N1CCC[C@H]1c1ncc(-c2ccc3cc(-c4ccc5c(c4)CCc4nc([C@@H]6CCCN6C(=O)[C@@H](NC(=O)OC)C6CCOCC6)[nH]c4-5)ccc3c2)[nH]1)C(C)C` [Example 222], the EC50 in test [1] was 0.001 to 0.999 nM; in test [2] (read-out: 1b), 0.023 nM; in test [3], 0.001 to 0.999 nM; in test [4] (read-out: 3a, genotype 3a NS5A chimeric 1b Con1 replicon), 0.001 to 0.99 nM; in test [5] (genotype 4a NS5A chimeric 1b Con1 replicon), 0.001 to 0.99 nM.
For `COC(=O)N[C@H](C(=O)N1C[C@@H](O)C[C@H]1c1ncc(-c2ccc3cc(-c4ccc(-c5cnc([C@@H]6CCCN6C(=O)[C@H](NC(=O)OC)c6ccccc6)[nH]5)cc4)ccc3c2)[nH]1)C(C)C` [Example 223], the EC50 in test [1] (Hepatitis C virus) was 1 to 44 nM; in test [2] (setting [6]) it was 0.022 nM; in test [3] (Hepatitis C virus), 0.001 to 0.999 nM; in test [4] (setting [7]), 1 to 4.99 nM; in test [5] (Hepatitis C virus), 0.001 to 0.99 nM.

For the origin of these results see patent US10344019B2 (priority 2010, dated 2019).
